Experimental data reported in patent US6303625A, “Triazolopyridines for the treatment of thrombosis disorders” (Ortho-McNeil Pharmaceutical, Inc., priority 1999, dated 2001).
No end group written: not given here.

How the values were obtained:
GPIIb/IIIa [1] = biological target: T1, GPIIb/IIIa (Homo sapiens, UniProt P05106+P08514); experiment: In vitro solid phase purified glycoprotein IIb/IIIa binding assay (fibrinogen binding); settings: for inhibition at 50 µM: read-out: Fibrinogen Binding % Inh. (50 μM)
Protocol: In Vito Solid Phase Purified Glycoprotein IIB/IIA Binding Assay
The plate was covered and incubated overnight at 4° C. The GPIIb/IIa solution was discarded and 150 μl of 5% BSA was added and incubated at RT for 1-3 h. The plate was washed extensively with modified Tyrodes buffer. Biotinylated fibrinogen (25 μl/well) at 2×final concentration was added to the wells that contain the test compounds (25 μl/well). The plate was covered and incubated at RT for 2-4 h. Twenty minutes prior to incubation completion, one drop of Reagent A (Vecta Stain ABC Horse Radish Peroxidase kit, Vector Laboratories, Inc.) and one drop Reagent B were added with mixing to 5 mL modified Tyrodes buffer mix and let stand. The ligand solution was discarded and the plate washed (5×200 μl/well) with modified Tyrodes buffer. Vecta Stain HRP-Biotin-Avidin reagent (50 μl/well, as prepared above) was added and incubated at RT for 15 min. The Vecta Stain solution was discarded and the wells washed (5×200 μl/well) with modified Tyrodes buffer. Developing buffer (10 mL of 50 mM citrate/phosphate buffer @ pH 5.3, 6 mg o-phenylenediamine, 6 μl 30% H2 O2; 50 μl/well) was added and incubated at RT for 3-5 min, and then 2N H2 SO4 (50 μl/well) was added. The absorbance was read at 490 nm.

gel-filtered platelets = experiment: In vitro inhibition of thrombin-induced gel-filtered platelet aggregation; format: cell-based; settings: Homo sapiens; for inhibition at 50 µM: read-out: Platelet Aggregation % Inh. (50 μM)
Protocol: In Vitro Inhibition of Thrombin-Induced Gel-Filtered Platelet Aggression Assay
The percentage of platelet aggregation is calculated as an increase in light transmission of compound-treated platelet concentrate vs. control-treated platelet concentrate. Human blood was obtained from drug free, normal donors into tubes containing […] sodium citrate. Platelet rich plasma (PRP) was collected by centrifugation of whole blood at 200×g for 10 min at 25° C. The PRP (5 mL) was gel filtered through Sepharose 2B (bed volume 50 mL), and the platelet count was adjusted to 2×10^7 platelets per sample. The following constituents were added to a siliconized cuvette: concentrated platelet filtrate and Tyrode's buffer (0.14M NaCl, 0.0027M KCl, 0.012M NaHCO3,0.76 mM Na2 HPO4, 0.0055M glucose, 2 mg/mL BSA and 5.0 mM HEPES @ pH 7.4) in an amount equal to 350 μl, 50 μl of 20 mM calcium and 50 μl of the test compound. Aggregation was monitored in a BIODATA aggregometer for the 3 min following the addition of agonist (thrombin 50 μl of 1 unit/mL).

[2] = system: ADP-induced ex vivo platelet aggregation; experiment: Ex vivo dog study: duration of >50% inhibition of ADP-induced ex vivo platelet aggregation; format: in vivo; settings: for Oral Dosing Duration (of >50% inhibition of ADP-induced ex vivo platelet aggregation): 1 mpk
Protocol: Adult mongrel dogs (8-13 kg) were anesthetized with sodium pentobarbital (35 mg/kg, i.v.) and artificially respired. Arterial blood pressure and heart rate were measured using a Millar catheter-tip pressure transducer inserted in a femoral artery. Another Millar transducer was placed in the left ventricle (LV) via a carotid artery to measure LV end diastolic pressure and indices of myocardial contractility. A lead II electrocardiogram was recorded from limb electrodes. Catheters were placed in a femoral artery and vein to sample blood and infuse drugs, respectively. Responses were continuously monitored using a Modular Instruments data acquisition system.
Arterial blood samples (5-9 ml) were withdrawn into tubes containing 3.8% sodium citrate to prepare platelet rich plasma (PRP) and to determine effects on coagulation parameters: prothrombin time (PT) and activated partial thromboplastin time (APTT). Separate blood samples (1.5 ml) were withdrawn in EDTA to determine hematocrit and cell counts (platelets, RBC's and white cells). Template bleeding times were obtained from the buccal surface using a symplate incision devise and Whatman filter paper.
Aggregation of PRP was performed using a BioData aggregometer. Aggregation of whole blood used a Chronolog impedance aggregometer. PT and APTT were determined on either a BioData or ACL 3000+ coagulation analyzer. Cells were counted with a Sysmex K-1000.
Compounds were solubilized in a small volume of dimethylformamide (DMF) and diluted with saline to a final concentration of 10% DMF. Compounds were administered by the intravenous route with a Harvard infusion pump. Doses was administered over a 15 min interval at a constant rate of 0.33 ml/min. Data were obtained after each dose and in 30 min intervals following the end of drug administration. Oral doses were administered as aqueous solutions via syringe.

[3] = system: in vitro thrombin-induced platelet aggregation; settings: L. Alig, J. Med. Chem. 1992, 35, 4393; read-out: IC50 against in vitro thrombin-induced platelet aggregation; cited from earlier work
GPIIb/IIIa [4] = biological target: T1, GPIIb/IIIa; settings: background statement; cited from earlier work

Row | Compound | IC50 (GPIIb/IIIa [1]) | inhibition at 50 µM (GPIIb/IIIa [1]) | IC50 (gel-filtered platelets) | inhibition at 50 µM (gel-filtered platelets) | Oral Dosing Duration (of >50% inhibition of ADP-induced ex vivo platelet aggregation) [2] | Intravenous Dosing Duration (of >50% inhibition of ADP-induced ex vivo platelet aggregation) ([2]; intravenous, 0.1 mpk) | IC50 [3] | inhibition of fibrinogen binding to GPIIb/IIIa (GPIIb/IIIa [4])
1 | CC1(C(=O)NC[C@H](NC(=O)OCc2ccccc2)C(=O)O)CCCn2c(CCC3CCNCC3)nnc21 (stereo partly drawn) [Compound 8, β-[[[5,6,7,8-Tetrahydro-8-methyl-3-[2-(4-piperidinyl)ethyl]-1,2,4-triazolo[4,3-a]pyridin-8-yl]carbonyl]amino]-αS-benzyloxycarbonylamino-protanoic acid] | 18.1 nM | 100% | 2100 nM | 100% | < 30 min | – | – | –
2 | O=C(O)C[C@H](NC(=O)C1CCCn2c(/C=C/C3CCNCC3)nnc21)c1cccnc1 (stereo partly drawn) [Compound 12, β-[[[5,6,7,8-Tetrahydro-3-[2-(4-piperidinyl)E-ethylene]-1,2,4-triazolo[4,3-a]pyridin-8-yl]carbonyl]amino]-βS-3-pyridylpropanoic acid] | 0.14 nM | 100% | 30 nM | 100% | 360 min | 150 min | – | –
3 | CN(CC(=O)c1ccc(OCC(=O)O)c(OCC(=O)O)c1)C(=O)c1ccc(C(=N)N)cc1 [Ro-438857] | – | – | – | – | – | – | 94 nM | –
4 | Arg-Gly-Asp | – | – | – | – | – | – | – | shown to inhibit fibrinogen binding to GPIIb/IIIa
5 | HHLGGAKQAGDV [gamma-chain peptide region of fibrinogen (γ400-411)] | – | – | – | – | – | – | – | shown to inhibit fibrinogen binding to GPIIb/IIIa
